Experiment [1] deals with T-Rex 293 cell line SC cells lacking increased expression of progesterone receptor isoform B protein. Put plainly: Cellular growth inhibition, T-Rex 293 SC cells without doxycycline. To be noted: not exposed to doxycycline, 72 hours, CellTiter-Glo 2.0. In kind it is cell-based. As to the method: (§1) The following types of cells were prepared for this experiment: (i) a T-Rex 293 cell line having increased expression of progesterone receptor isoform B protein due to exposure to doxycycline and (ii) a T-Rex 293 cell line lacking increased expression of progesterone receptor isoform B protein. Ability of the test compounds to inhibit proliferation of the foregoing cell types was evaluated according to the procedures set forth below.
(§2) The doxycycline-inducible progesterone receptor isoform B protein expressing cell line was established using the following protocol: T-Rex 293 cells were purchased from Invitrogen (Cat #R71007) and transfected using Lipofectamine 2000 with the wild-type progesterone receptor B protein sequence cloned into the pcDNA4/TO vector. Transfected cells were selected using 400 μg/mL Zeocin (Invitrogen Cat #R25001). Following selection, single clones were raised and maintained in Dulbecco's Modified Eagle Medium (DMEM) supplemented with 10% w/w Tetracycline-free fetal bovine serum (FBS) and 250 μg/mL Zeocin. Clones were analyzed for expression of progesterone receptor isoform B protein in the presence and absence of 10 ng/mL doxycycline (Sigma Cat #D9891), and a single doxycycline-inducible clone (hereinafter “SC”) was selected for use in downstream assays.
(§3) The SC cells were seeded on poly-D-lysine coated, black clear-bottom 384-well plates at 2500/well, in 25 μL Phenol Red Free Dulbecco's Modified Eagle Medium (DMEM) supplemented with 10% w/w charcoal-dextran treated fetal bovine serum (FBS) and 1% w/w pen-strep, with or without 10 ng/mL doxycycline. Pen-Strep is a commercially available mixture of penicillin G and streptomycin, which is used in mammalian cell culture media to prevent bacterial contamination. Phenol Red Free Dulbecco's Modified Eagle Medium (DMEM) supplemented with 10% w/w charcoal-dextran treated fetal bovine serum (FBS) and 1% w/w pen-strep, with or without 10 ng/mL doxycycline is herein referred to as Treatment Medium. Following seeding of cells in the plates, the plates were spun at 300×g for 30 seconds, then equilibrated to room temperature for 30 minutes, and then deposited in a humidified tissue culture incubator maintained at 37° C. with 5% CO2.
(§4) At 24 hours after seeding of the cells, dilutions of test compound were prepared in DMSO and dissolved in Treatment Medium, to achieve a final DMSO concentration of 0.5% w/w, thereby providing the Test Compound Solution. A 25 μL aliquot of the Test Compound Solution was added to cells in the well plates. An equal volume of a solution containing DMSO and Treatment Medium was used as a negative control. Following treatment of cells with Test Compound Solution or said equal volume of a solution containing DMSO and Treatment Medium, the plates were spun at 300×g for 30 seconds, and then left in an incubator for 72 hours.
(§5) At the end of the treatment duration, cell viability was quantified with CellTiter-Glo 2.0 reagent (Promega Cat #G9243). For this purpose, plates were equilibrated to room temperature for 30 minutes, and then 25 μL of CellTiter-Glo 2.0 reagent was added to cells in the plate wells. Plates were then agitated on a shaker for two minutes at 500 rpm and subsequently incubated at room temperature for 10 minutes. Following incubation, the plates were spun at 3000×g for 30 seconds, then sealed with an optical adhesive cover, and luminescence readings were measured with an EnVision Plate Reader (Perkin Elmer).
(§6) Data was normalized using zero luminescence for baseline. A four-parameter non-linear regression curve fit was applied to dose-response data in GraphPad Prism data analysis software to determine the half-maximal growth inhibitory concentration (GI50) for each test compound.

Experiment [2] deals with T-Rex 293 cell line SC cells having increased expression of progesterone receptor isoform B protein. Put plainly: Cellular growth inhibition, T-Rex 293 SC cells with doxycycline (increased progesterone receptor isoform B expression). Format: cell-based. To be noted: with 10 ng/mL doxycycline (increased progesterone receptor isoform B), 72 hours, CellTiter-Glo 2.0. As to the method:
as §1, §2, §3, §4, §5, §6

The next experiment addresses T1, CDK1 (Homo sapiens, UniProt P06493).
T1 construct: made in house; host or cells: E. coli BL21-derived host (T7 phage) or HEK-293 ('BEK-293' [sic])
Put plainly: KdELECT binding assay, CDK1. The note with it: CDK1, Table 9. As to the method:
(§7) Compounds were tested using a KdELECT. Kinase-tagged T7 phage strains were prepared in an E. coli host derived from the BL21 strain. E. coli were grown to log-phase and infected with T7 phage and incubated with shaking at 32° C. until lysis. The lysates were centrifuged and filtered to remove cell debris. The remaining kinases were produced in BEK-293 cells and subsequently tagged with DNA for qPCR detection. Streptavidin-coated magnetic beads were treated with biotinylated small molecule ligands for 30 minutes at room temperature to generate affinity resins for kinase assays. The liganded beads were blocked with excess biotin and washed with blocking buffer (SeaBlock (Pierce), 1% BSA, 0.05% Tween 20, 1 mM DTT) to remove unbound ligand and to reduce non-specific binding. Binding reactions were assembled by combining kinases, liganded affinity beads, and test compounds in 1× binding buffer (20% SeaBlock, 0.17×PBS, 0.05% Tween 20, 6 mM DTT). Test compounds were prepared as 111× stocks in 100% DMSO. Kd values were determined using an 11-point 3-fold compound dilution series with three DMSO control points. All compounds for Kd measurements are distributed by acoustic transfer (non-contact dispensing) in 100% DMSO. The compounds were then diluted directly into the assays such that the final concentration of DMSO was 0.9%. All reactions performed in polypropylene 384-well plate. Each was a final volume of 0.02 mL. The assay plates were incubated at room temperature with shaking for 1 hour and the affinity beads were washed with wash buffer (lx PBS, 0.05% Tween 20). The beads were then re-suspended in elution buffer (lx PBS, 0.05% Tween 20, 0.5 μM nonbiotinylated affinity ligand) and incubated at room temperature with shaking for 30 minutes. The kinase concentration in the eluates was measured by qPCR.

In the next experiment the target is T2, CDK2 (Homo sapiens, UniProt P24941).
T2 construct: made in house; host or cells: E. coli BL21-derived host (T7 phage) or HEK-293 ('BEK-293' [sic])
Put plainly: KdELECT binding assay, CDK2. To be noted: CDK2, Table 8. As to the method:
as §7, with “All reactions performed in polypropylene 384-well plate. Each was a final volume of 0.02 mL. The assay plates were incubated at room temperature with shaking for 1 hour and the affinity beads were washed with wash buffer (lx PBS, 0.05% Tween 20). The beads were then re-suspended in elution buffer (lx PBS, 0.05% Tween 20, 0.5 μM nonbiotinylated affinity ligand) and incubated at room temperature with shaking for 30 minutes.” left out

T1 sequence (P06493 whole entry): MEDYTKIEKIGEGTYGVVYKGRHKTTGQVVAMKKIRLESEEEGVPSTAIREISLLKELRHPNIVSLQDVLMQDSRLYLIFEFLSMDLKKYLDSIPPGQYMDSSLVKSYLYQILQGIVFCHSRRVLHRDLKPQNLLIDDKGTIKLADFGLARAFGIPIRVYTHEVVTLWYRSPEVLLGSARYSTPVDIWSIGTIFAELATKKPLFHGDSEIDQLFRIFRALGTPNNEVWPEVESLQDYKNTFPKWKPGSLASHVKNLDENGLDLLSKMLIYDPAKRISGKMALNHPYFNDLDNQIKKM

As to `CCc1cnn2c(NCc3ccc(OCC4CCN(CC5CCN(c6ncc(C(=O)N[C@H]7C(C)(C)[C@H](Oc8ccc(C#N)c(Cl)c8)C7(C)C)cn6)CC5)CC4)nc3)cc(N3CCCC[C@H]3CCO)nc12` [Compound I-51], the GI50 in experiment [1] and in experiment [2] was less than 500 nM each time. Moreover, the equilibrium dissociation constant (Kd) at CDK1 was more than 2500 nM.

`CCc1cnn2c(NCc3ccc(COCCN4CCN(CC5CCN(c6ncc(C(=O)N[C@H]7C(C)(C)[C@H](Oc8ccc(C#N)c(Cl)c8)C7(C)C)cn6)CC5)CC4)nc3)cc(N3CCCC[C@H]3CCO)nc12` [Compound I-42]: the concentration for 50% growth inhibition (GI50) in experiment [1] and in experiment [2] was less than 500 nM throughout. Besides, the Kd on CDK1 was more than 2500 nM.

Consider `CCc1cnn2c(NCc3ccc(OCCOCCOCCOC4CCN(c5ncc(C(=O)N[C@H]6C(C)(C)[C@H](Oc7ccc(C#N)c(Cl)c7)C6(C)C)cn5)CC4)nc3)cc(N3CCCC[C@H]3CCO)nc12` [Compound I-8], for which the 50% growth inhibitory concentration (GI50) in experiment [1] and in experiment [2] was less than 500 nM throughout. Besides, the Kd at CDK2 and on CDK1 was more than 2500 nM throughout.

Take `CCc1cnn2c(NCc3ccc(OCCN4CCN(CC5CCN(c6ncc(C(=O)N[C@H]7C(C)(C)[C@H](Oc8ccc(C#N)c(Cl)c8)C7(C)C)cn6)CC5)CC4)nc3)cc(N3CCCC[C@H]3CCO)nc12` [Compound I-41]: the GI50 in experiment [1] and in experiment [2] was less than 500 nM throughout. On CDK1, this compound yielded an equilibrium dissociation constant (Kd) of more than 2500 nM.
